Experimental data: patent US10000507B2, “Furo- and thieno-pyridine carboxamide compounds useful as pim kinase inhibitors” (Incyte Corporation, priority 2013, dated 2018)

How the values were obtained:
Type in all cases: biochemical
Pim-1 = Pim-1 (Homo sapiens (Human), UniProt P11309); test: Pim-1 kinase assay; details: 1 mM ATP, biotin-labeled BAD peptide substrate; read-out: Pim1 IC50
Experimental: (§1) Pim-1 and Pim-3 kinase assays-20 μL reactions were run in white 384 well polystyrene plates dotted with 0.8 μL compound/DMSO in the assay buffer (50 mM Tris, pH 7.5, 0.01% Tween-20, 5 mM MgCl2, 0.01% BSA, 5 mM DTT), containing […] Biotin-labeled BAD peptide substrate (AnaSpec 62269), 1 mM ATP, and 2.5 pM (Pim-1, Invitrogen PV3503) or 1.25 pM (Pim-3, Millipore 14-738) enzyme for 1 h at 25° C. Reactions were stopped by addition of 10 μL STOP Buffer (150 mM Tris, pH=7.5, 150 mM NaCl, 75 mM EDTA, 0.01% Tween-20, 0.3% BSA) supplemented with Phospho-Bad (Ser112) Antibody (Cell Signaling 9291) diluted 666-fold, and Streptavidin donor beads (PerkinElmer 6760002) along with Protein-A acceptor beads (PerkinElmer 6760137) at 15 μg/mL each. Supplementation of the STOP buffer with beads and stopping the reactions were done under reduced light. Prior to the stopping reactions STOP buffer with beads was pre-incubated for 1 h in the dark at room temperature. After stopping the reactions, plates were incubated for 1 h in the dark at room temperature before reading on a PHERAstar FS plate reader (BMG Labtech) under reduced light.

Pim-2 = Pim-2 (Homo sapiens (Human), UniProt Q9P1W9); test: Pim-2 kinase assay; details: 1 mM ATP, fluorescein-labeled CREBtide peptide substrate; read-out: Pim2 IC50
Pim-2, sequence (Q9P1W9 whole entry): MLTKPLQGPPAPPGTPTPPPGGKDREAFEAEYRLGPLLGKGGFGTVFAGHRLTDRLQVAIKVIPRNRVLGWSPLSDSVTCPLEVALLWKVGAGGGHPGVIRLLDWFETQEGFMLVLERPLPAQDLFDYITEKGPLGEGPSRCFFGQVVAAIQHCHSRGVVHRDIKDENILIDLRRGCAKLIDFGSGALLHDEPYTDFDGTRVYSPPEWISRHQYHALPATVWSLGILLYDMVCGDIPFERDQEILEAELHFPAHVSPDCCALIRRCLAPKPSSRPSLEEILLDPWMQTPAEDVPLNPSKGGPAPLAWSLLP
Experimental: Pim-2 kinase assay-20 μL reactions were run in white 384 well polystyrene plates dotted with 0.8 μL compound/DMSO in the assay buffer (50 mM Tris, pH 7.5, 0.01% Tween-20, 5 mM MgCl2, 0.01% BSA, 5 mM DTT), containing 0.05 μm Fluorescein-labeled CREBtide peptide substrate (Invitrogen PV3508), 1 mM ATP, and 1 nM enzyme (Invitrogen PV3649) for 2 h at 25° C. Reactions were stopped by addition of 10 μL TR-FRET Dilution Buffer (Invitrogen PV3574) with 30 mM EDTA and 1.5 nM LanthaScreen Tb-CREB pSer133 antibody (Invitrogen PV3566). After 30 min. incubation at room temperature, plates were read on a PHERAstar FS plate reader (BMG Labtech).

Pim-3 = Pim-3 (Homo sapiens (Human), UniProt Q86V86); test: Pim-3 kinase assay; details: 1 mM ATP, biotin-labeled BAD peptide substrate; read-out: Pim3 IC50
Experimental: as §1

Pim-1, sequence (P11309 whole entry): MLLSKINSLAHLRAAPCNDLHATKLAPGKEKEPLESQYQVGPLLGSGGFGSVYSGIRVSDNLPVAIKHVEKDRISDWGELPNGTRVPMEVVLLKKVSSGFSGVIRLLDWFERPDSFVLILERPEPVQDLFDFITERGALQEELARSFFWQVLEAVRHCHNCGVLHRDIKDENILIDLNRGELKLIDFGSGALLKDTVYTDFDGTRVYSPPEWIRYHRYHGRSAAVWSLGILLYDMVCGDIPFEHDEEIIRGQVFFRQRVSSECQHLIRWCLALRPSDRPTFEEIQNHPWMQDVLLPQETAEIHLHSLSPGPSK

| Structure (SMILES) | IC50 (Pim-1) | IC50 (Pim-2) | IC50 (Pim-3) |
| --- | --- | --- | --- |
| Nc1oc2cc(Br)cnc2c1C(=O)Nc1cnccc1N1CCC[C@H](N)C1 [Example 54, 2-amino-N-{4-[(3S)-3-aminopiperidin-1-yl]pyridin-3-yl}-6-bromo-furo[3,2-b]pyridine-3-carboxamide] | ≤ 10 nM | 10 to 100 nM | ≤ 10 nM |
| Cc1ccnc2c(C(=O)Nc3cnccc3N3CCC[C@H](N)C3)c(N)oc12 [Example 55, 2-amino-N-{4-[(3S)-3-aminopiperidin-1-yl]pyridin-3-yl}-7-methyl-furo[3,2-b]pyridine-3-carboxamide] | 10 to 100 nM | > 2000 nM | ≤ 10 nM |
| Cn1ncc(NC(=O)c2c(N)oc3cc(C(F)(F)F)cnc23)c1N1CCCC(N)CC1 (stereo not drawn) [Example 56, 2-amino-N-[5-(4-aminoazepan-1-yl)-1-methyl-1H-pyrazol-4-yl]-6-trifluoromethyl-furo[3,2-b]pyridine-3-carboxamide] | ≤ 10 nM | 10 to 100 nM | ≤ 10 nM |
| Cn1ncc(NC(=O)c2c(N)oc3cc(Cl)cnc23)c1N1CCCC(N)CC1 (stereo not drawn) [Example 57, 2-Amino-N-[5-(4-aminoazepan-1-yl)-1-methyl-1H-pyrazol-4-yl]-6-chlorofuro[3,2-b]pyridine-3-carboxamide] | ≤ 10 nM | 100 to 1000 nM | ≤ 10 nM |
| Cn1ncc(NC(=O)c2c(N)oc3c(Cl)ccnc23)c1N1CCCC(N)CC1 (stereo not drawn) [Example 58, 2-amino-N-[5-(4-aminoazepan-1-yl)-1-methyl-1H-pyrazol-4-yl]-7-chlorofuro[3,2-b]pyridine-3-carboxamide] | ≤ 10 nM | 100 to 1000 nM | ≤ 10 nM |
| CCCc1cnc2c(C(=O)Nc3cnn(C)c3N3CCCC(N)CC3)c(N)oc2c1 (stereo not drawn) [Example 59, 2-amino-N-[5-(4-aminoazepan-1-yl)-1-methyl-1H-pyrazol-4-yl]-6-propylfuro[3,2-b]pyridine-3-carboxamide] | ≤ 10 nM | 10 to 100 nM | ≤ 10 nM |
| Nc1oc2cccnc2c1C(=O)Nc1cnccc1N1C[C@@H](N)C[C@@H](C(F)(F)F)C1 [Example 60, 2-amino-N-{4-[(3S,5R)-3-amino-5-(trifluoromethyl)piperidin-1-yl]pyridin-3-yl}-furo[3,2-b]pyridine-3-carboxamide] | ≤ 10 nM | 10 to 100 nM | ≤ 10 nM |
| Nc1oc2cc(C(F)(F)F)cnc2c1C(=O)Nc1cnccc1N1C[C@@H](N)C[C@@H](C(F)(F)F)C1 [Example 61, 2-amino-N-{4-[(3S,5R)-3-amino-5-(trifluoromethyl)piperidin-1-yl]pyridin-3-yl}-6-trifluoromethyl-furo[3,2-b]pyridine-3-carboxamide] | ≤ 10 nM | 10 to 100 nM | ≤ 10 nM |
| Nc1oc2cc(Cl)cnc2c1C(=O)Nc1cnccc1N1C[C@@H](N)C[C@@H](C(F)(F)F)C1 [Example 62, 2-amino-N-{4-[(3S,5R)-3-amino-5-(trifluoromethyl)piperidin-1-yl]pyridin-3-yl}-6-chlorofuro[3,2-b]pyridine-3-carboxamide] | ≤ 10 nM | 10 to 100 nM | ≤ 10 nM |
| Nc1oc2cc(F)cnc2c1C(=O)Nc1cnccc1N1C[C@@H](N)C[C@@H](C(F)(F)F)C1 [Example 63, 2-amino-N-{4-[(3S,5R)-3-amino-5-(trifluoromethyl)piperidin-1-yl]pyridin-3-yl}-6-fluorofuro[3,2-b]pyridine-3-carboxamide] | ≤ 10 nM | 10 to 100 nM | ≤ 10 nM |
| Cc1cncc(NC(=O)c2c(N)oc3cccnc23)c1N1CC[C@H](N)C1 [Example 64, 2-amino-N-{4-[(3S)-3-aminopyrrolidin-1-yl]-5-methylpyridin-3-yl}furo[3,2-b]pyridine-3-carboxamide] | ≤ 10 nM | 100 to 2000 nM | ≤ 10 nM |
| C[C@@H]1C[C@H](N)CN(c2ccncc2NC(=O)c2c(N)oc3cccnc23)C1 [Example 65, 2-amino-N-{4-[(3S,5R)-3-amino-5-methyl-piperidin-1-yl]pyridin-3-yl}-furo[3,2-b]pyridine-3-carboxamide] | ≤ 10 nM | 10 to 100 nM | ≤ 10 nM |
| C[C@H]1CN(c2ccncc2NC(=O)c2c(N)oc3cc(Cl)cnc23)C[C@@H](N)[C@@H]1O [Example 66, 2-amino-N-{4-[(3R,4R,5S)-3-amino-4-hydroxy-5-methylpiperidin-1-yl]pyridin-3-yl}-6-chlorofuro[3,2-b]pyridine-3-carboxamide] | ≤ 10 nM | 10 to 100 nM | ≤ 10 nM |
| CCCc1cnc2c(C(=O)Nc3cnccc3N3C[C@@H](N)[C@H](O)[C@@H](C)C3)c(N)oc2c1 [Example 67, 2-Amino-N-{4-[(3R,4R,5S)-3-amino-4-hydroxy-5-methylpiperidin-1-yl]pyridin-3-yl}-6-propylfuro[3,2-b]pyridine-3-carboxamide] | ≤ 10 nM | ≤ 10 nM | ≤ 10 nM |
| C[C@H]1CN(c2ccncc2NC(=O)c2c(N)oc3cc(C(F)(F)F)cnc23)C[C@@H](N)[C@@H]1O [Example 68, 2-Amino-N-{4-[(3R,4R,5S)-3-amino-4-hydroxy-5-methylpiperidin-1-yl]pyridin-3-yl}-6-(trifluoromethyl)furo[3,2-b]pyridine-3-carboxamide] | ≤ 10 nM | 10 to 100 nM | ≤ 10 nM |
| CCCc1cnc2c(C(=O)Nc3cnccc3N3C[C@@H](N)C[C@@H](C(F)(F)F)C3)c(N)oc2c1 [Example 69, 2-Amino-N-{4-[(3S,5R)-3-amino-5-(trifluoromethyl)piperidin-1-yl]pyridin-3-yl}-6-propylfuro[3,2-b]pyridine-3-carboxamide] | ≤ 10 nM | ≤ 10 nM | ≤ 10 nM |
| CCCc1cnc2c(C(=O)Nc3cnccc3N3C[C@H](C)C[C@H](N)C3)c(N)oc2c1 [Example 70, 2-Amino-N-{4-[(3S,5R)-3-amino-5-methyl-piperidin-1-yl]pyridin-3-yl}-6-propylfuro[3,2-b]pyridine-3-carboxamide] | ≤ 10 nM | 10 to 100 nM | ≤ 10 nM |
| C[C@@H]1C[C@H](N)CN(c2ccncc2NC(=O)c2c(N)oc3cc(F)cnc23)C1 [Example 71, 2-Amino-N-{4-[(3S,5R)-3-amino-5-methyl-piperidin-1-yl]pyridin-3-yl}-6-fluorofuro[3,2-b]pyridine-3-carboxamide] | ≤ 10 nM | 10 to 100 nM | ≤ 10 nM |
| C[C@@H]1C[C@H](N)CN(c2ccncc2NC(=O)c2c(N)oc3cc(Cl)cnc23)C1 [Example 72, 2-Amino-N-{4-[(3S,5R)-3-amino-5-methyl-piperidin-1-yl]pyridin-3-yl}-6-chlorofuro[3,2-b]pyridine-3-carboxamide] | ≤ 10 nM | 10 to 100 nM | ≤ 10 nM |
| C[C@@H]1C[C@H](N)CN(c2ccncc2NC(=O)c2c(N)oc3cc(C(F)(F)F)cnc23)C1 [Example 73, 2-Amino-N-{4-[(3S,5R)-3-amino-5-methyl-piperidin-1-yl]pyridin-3-yl}-6-(trifluoromethyl)-furo[3,2-b]pyridine-3-carboxamide] | ≤ 10 nM | 10 to 100 nM | ≤ 10 nM |
| C[C@H]1CN(c2ccncc2NC(=O)c2c(N)oc3cccnc23)C[C@@H](N)[C@@H]1O [Example 74, 2-Amino-N-{4-[(3R,4R,5S)-3-amino-4-hydroxy-5-methylpiperidin-1-yl]pyridin-3-yl}-furo[3,2-b]pyridine-3-carboxamide] | ≤ 10 nM | 10 to 100 nM | ≤ 10 nM |
